Assay results: patent US12297203B2, “Pyrrolopyrimidine ITK inhibitors” (ACLARIS THERAPEUTICS, INC., priority 2018, dated 2025)

Key:
ITK = ITK (Homo sapiens (Human), UniProt Q08881); assay: ITK inhibitor binding potency (LanthaScreen competitive binding assay); conditions: read-out: ITK Inh. IC50
Procedure, shortened: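 TR-FRET tracer displacement: 10 nM GST-ITK, 2 nM Eu-anti-GST, 50 nM tracer-236 in HEPES pH 7.5, MgCl2, 2% DMSO; 11 points, 20 µM–0.34 nM. Run with or without 2 h compound–ITK preincubation before tracer; IC50 by 4-parameter fit of emission ratio.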

JAK3 = JAK3 (Homo sapiens (Human), UniProt P52333); assay: JAK3 enzyme activity assay (Caliper mobility shift); format: biochemical; conditions: ATP at Km level; read-out: JAK3 Inh. IC50
Chain of JAK3 (P52333 781-1124): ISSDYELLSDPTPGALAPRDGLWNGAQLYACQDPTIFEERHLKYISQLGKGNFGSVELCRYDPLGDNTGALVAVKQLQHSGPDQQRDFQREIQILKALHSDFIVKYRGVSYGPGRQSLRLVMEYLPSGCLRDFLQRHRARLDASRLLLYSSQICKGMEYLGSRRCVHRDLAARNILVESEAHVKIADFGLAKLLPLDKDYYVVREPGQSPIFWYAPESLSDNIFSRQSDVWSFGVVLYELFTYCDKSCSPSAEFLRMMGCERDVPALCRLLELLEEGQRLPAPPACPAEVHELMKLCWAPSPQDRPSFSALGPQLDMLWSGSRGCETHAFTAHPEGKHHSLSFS
Procedure, shortened: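 Caliper mobility-shift assay with 2.5 nM JAK3, […] and […] (Km level) in 20 mM HEPES pH 7.5, 10 mM MgCl2, 0.01% BSA, 0.0005% Tween-20, 2% DMSO. 11-point dose-response from […] 0.34 nM; IC50 by 4-parameter logistic fit of product/substrate signal.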

[1] = test system: ITK phosphorylation of its substrate, PLCγ1, at Y783; assay: ITK target modulation assay (PLCγ1 Y783 phosphorylation, anti-CD3 stimulated Jurkat T cells); format: cell-based; conditions: Homo sapiens, Jurkat, anti-CD3 Dynabeads stimulation, read-out: PLC-γ Inh. IC50
Procedure, shortened: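 Jurkat cells (400,000/well) were preincubated with compound for 1 h at 37 °C (0.1% DMSO final), then stimulated with anti-CD3 Dynabeads (bead:cell 2:1). Hypotonic lysates were dot-blotted and probed for phospho-PLCγ1 Y783 and total PLCγ1, with quantification by dual-channel infrared imaging.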

[2] = test system: JAK1/3 phosphorylation of its substrate, STAT5, at Y694; assay: JAK1/3 target modulation assay (IL-2 stimulated STAT5 Y694 phosphorylation in PBMC); format: cell-based; conditions: Homo sapiens, PBMC, Primary human peripheral blood mononuclear cells, IL-2 25 ng/mL; read-out: IL2-STAT5 Inh. IC50
Procedure, shortened: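 Human PBMCs preincubated with compound for 1 h at 37 °C, then stimulated with IL-2 (25 ng/mL final) for 5 min. Cells were lysed and phospho-STAT5a,b (Y694) measured by MSD electrochemiluminescence immunoassay, single-plex or multiplex with total STAT5a,b.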

Chain of ITK (Q08881 whole entry): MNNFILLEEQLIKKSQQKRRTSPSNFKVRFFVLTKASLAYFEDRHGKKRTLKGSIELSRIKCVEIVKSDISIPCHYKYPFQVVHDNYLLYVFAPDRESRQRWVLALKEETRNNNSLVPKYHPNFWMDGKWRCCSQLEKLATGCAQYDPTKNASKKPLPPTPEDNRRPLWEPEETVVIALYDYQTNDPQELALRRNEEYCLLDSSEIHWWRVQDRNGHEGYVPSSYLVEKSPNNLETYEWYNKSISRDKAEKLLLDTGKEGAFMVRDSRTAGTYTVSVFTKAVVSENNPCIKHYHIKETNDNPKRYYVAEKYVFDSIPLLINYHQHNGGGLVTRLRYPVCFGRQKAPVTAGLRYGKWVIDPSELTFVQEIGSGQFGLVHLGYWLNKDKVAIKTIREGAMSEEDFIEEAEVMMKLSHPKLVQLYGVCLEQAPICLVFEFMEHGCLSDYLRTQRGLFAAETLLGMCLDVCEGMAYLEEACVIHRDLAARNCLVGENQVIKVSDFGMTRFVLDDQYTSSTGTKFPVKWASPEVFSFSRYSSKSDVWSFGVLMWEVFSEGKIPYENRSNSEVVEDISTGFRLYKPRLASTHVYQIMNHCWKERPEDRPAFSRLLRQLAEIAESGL

Row | Compound | IC50 (ITK) | IC50 (JAK3) | IC50 [1] | IC50 [2]
1 | C=CC(=O)N1CC(Nc2ncnc3[nH]cc(CC4CC4)c23)CCC1C(C)C (stereo not drawn) [Example 41, 1-(5-((5-(cyclopropylmethyl)-7H-pyrrolo[2,3-d]pyrimidin-4-yl)amino)-2-isopropylpiperidin-1-yl)prop-2-en-1-one] | 10 to 100 nM | 10 to 100 nM | 100 to 1000 nM | > 1000 nM
2 | C=CC(=O)N1C[C@H](Nc2ncnc3[nH]cc(C4(C)CC4(F)F)c23)CC[C@@H]1C (stereo partly drawn) [Example 50, 1-((2S,5R)-5-((5-(2,2-difluoro-1-methylcyclopropyl)-7H-pyrrolo[2,3-d]pyrimidin-4-yl)amino)-2-methylpiperidin-1-yl)prop-2-en-1-one] | ≤ 10 nM | ≤ 10 nM | ≤ 100 nM | 100 to 1000 nM
3 | C=CC(=O)N1CCC(Nc2cnc3[nH]cc(C(=O)OCC)c3c2)CC1 [Example 96, ethyl 5-((1-acryloylpiperidin-4-yl)amino)-1H-pyrrolo[2,3-b]pyridine-3-carboxylate] | > 100 nM | ≤ 10 nM | > 1000 nM | 100 to 1000 nM
4 | C=CC(=O)N1CCC(Nc2cnc3[nH]cc(C(=O)OCC)c3n2)CC1 [Example 97, ethyl 2-((1-acryloylpiperidin-4-yl)amino)-5H-pyrrolo[2,3-b]pyrazine-7-carboxylate] | > 100 nM | ≤ 10 nM | > 1000 nM | 100 to 1000 nM
5 | C=CC(=O)N1CCC(Nc2cnc3[nH]cc(C(=O)C4CC4)c3c2)CC1 [Example 98, 1-(4-((3-(cyclopropanecarbonyl)-1H-pyrrolo[2,3-b]pyridin-5-yl)amino)piperidin-1-yl)prop-2-en-1-one] | > 100 nM | 10 to 100 nM | > 1000 nM | > 1000 nM
6 | C=CC(=O)N1CCC(Nc2cnc3[nH]cc(C(=O)C4CC4)c3n2)CC1 [Example 99, 1-(4-((7-(cyclopropanecarbonyl)-5H-pyrrolo[2,3-b]pyrazin-2-yl)amino)piperidin-1-yl)prop-2-en-1-one] | 10 to 100 nM | ≤ 10 nM | > 1000 nM | ≤ 100 nM
7 | C=CC(=O)N1CCC(Nc2cnc3[nH]cc(C(=O)C4CCC4)c3n2)CC1 [Example 100, 1-(4-((7-(cyclobutanecarbonyl)-5H-pyrrolo[2,3-b]pyrazin-2-yl)amino)piperidin-1-yl)prop-2-en-1-one] | 10 to 100 nM | ≤ 10 nM | 100 to 1000 nM | ≤ 100 nM
8 | C=CC(=O)N1CCC(Nc2cnc3[nH]cc(C(COC)C4CC4)c3c2)CC1 (stereo not drawn) [Example 101, 1-(4-((3-(1-cyclopropyl-2-methoxyethyl)-1H-pyrrolo[2,3-b]pyridin-5-yl)amino)piperidin-1-yl)prop-2-en-1-one] | > 100 nM | > 100 nM | > 1000 nM | > 1000 nM

Results, then the molecule that gave them:

Row | IC50 (ITK) | IC50 (JAK3) | IC50 [1] | IC50 [2] | Compound
9 | ≤ 10 nM | ≤ 10 nM | ≤ 100 nM | ≤ 100 nM | C=CC(=O)N1C[C@H](Nc2ncnc3[nH]cc(C4CCCC4)c23)CC[C@@H]1C [Example 30, 1-((2S,5R)-5-((5-cyclopentyl-7H-pyrrolo[2,3-d]pyrimidin-4-yl)amino)-2-methylpiperidin-1-yl)prop-2-en-1-one]
10 | ≤ 10 nM | ≤ 10 nM | 100 to 1000 nM | 100 to 1000 nM | C=CC(=O)N1C[C@H](Nc2ncnc3[nH]cc(C(=O)OC(C)(C)C)c23)CC[C@@H]1C [Example 31, tert-butyl 4-(((3R,6S)-1-acryloyl-6-methylpiperidin-3-yl)amino)-7H-pyrrolo[2,3-d]pyrimidine-5-carboxylate]
11 | ≤ 10 nM | ≤ 10 nM | 100 to 1000 nM | 100 to 1000 nM | C=CC(=O)N1C[C@H](Nc2ncnc3[nH]cc(C(=O)C4CC4)c23)CC[C@@H]1C [Example 32, 1-((2S,5R)-5-((5-(cyclopropanecarbonyl)-7H-pyrrolo[2,3-d]pyrimidin-4-yl)amino)-2-methylpiperidin-1-yl)prop-2-en-1-one]
12 | ≤ 10 nM | ≤ 10 nM | ≤ 100 nM | 100 to 1000 nM | C=CC(=O)N1C[C@H](Nc2ccnc3[nH]cc(C(=O)C4CC4)c23)CC[C@@H]1C [Example 34, 1-((2S,5R)-5-((3-(cyclopropanecarbonyl)-1H-pyrrolo[2,3-b]pyridin-4-yl)amino)-2-methylpiperidin-1-yl)prop-2-en-1-one]
13 | ≤ 10 nM | ≤ 10 nM | 100 to 1000 nM | 100 to 1000 nM | C=CC(=O)N1C[C@H](Nc2ccnc3[nH]cc(CC4CC4)c23)CC[C@@H]1C [Example 35, 1-((2S,5R)-5-((3-(cyclopropylmethyl)-1H-pyrrolo[2,3-b]pyridin-4-yl)amino)-2-methylpiperidin-1-yl)prop-2-en-1-one]
14 | ≤ 10 nM | 10 to 100 nM | 100 to 1000 nM | > 1000 nM | C[C@H]1CC[C@@H](Nc2ncnc3[nH]cc(CC4CC4)c23)CN1C(=O)/C=C/CN(C)C [Example 37, (E)-1-((2S,5R)-5-((5-(cyclopropylmethyl)-7H-pyrrolo[2,3-d]pyrimidin-4-yl)amino)-2-methylpiperidin-1-yl)-4-(dimethylamino)but-2-en-1-one]
15 | ≤ 10 nM | ≤ 10 nM | 100 to 1000 nM | 100 to 1000 nM | C=CC(=O)N1CC(Nc2ncnc3[nH]cc(CC4CC4)c23)CCC1CC (stereo not drawn) [Example 38, 1-(5-((5-(cyclopropylmethyl)-7H-pyrrolo[2,3-d]pyrimidin-4-yl)amino)-2-ethylpiperidin-1-yl)prop-2-en-1-one]
